Experiments:
KPC1361 cells = assay: Immunocytochemistry of MHC-I localization and vacuoles; type: cell-based, mouse; conditions: IFN-γ stimulated KPC1361 cells, vs DMSO
Experimental: FIG. 1D is a series of 6 images showing MHC-I localization in IFN-γ stimulated KPC1361 cells treated with DMSO, Apilimod, or ESK981.
Cancer cells were seeded on cover glasses coated with 0.01% poly-L-Lysine (Sigma-Aldrich; catalog #: A-005-C). The cells were then treated with DMSO, apilimod, or ESK981, and stimulated with 10 ng/ml mouse recombinant IFN-γ (R&D Systems; catalog #: 485-MI) for 24 hours, followed by fixation with 2% paraformaldehyde in PBS and one washing with PBS. The cells were then permeabilized with 0.25% Triton X-100 in PBS, washed with PBS three times, and blocked with 5% goat serum in PBS for one hour at room temperature. After blocking, the cells were incubated with the MHC-I antibody (ER-HR52; Novus Biologicals; catalog #: NB100-64952) at 4° C. overnight, followed by PBS wash for three times and incubation of secondary antibody, Alexa Fluor 488 goat anti-rat IgG antibody (Jackson Immunoresearch; #112-545-167) at room temperature for one hour. After further washing with PBS three times, the cells were stained with DAPI and mounted on slides for imaging.

[1] = tested on: subcutaneous tumors derived from OVA-expressing B16-F10 cells; assay: Adoptive cell therapy in subcutaneous B16-F10-OVA tumor model; type: in vivo, mice; conditions: combination with ACT
Text: FIG. 10A is an experimental timeline of the efficacy against subcutaneous ovalbumin-expressing B16-F10 (B16-F10-OVA) tumors treated with adoptive cell therapy (ACT) in combination with apilimod or ESK981.
FIG. 10B is a series of 6 line graphs showing the growth of subcutaneous ovalbumin-expressing B16-F10 (B16-F10-OVA) tumors treated with adoptive cell therapy (ACT) in combination with apilimod or ESK981.
FIG. 10C is a line graph of the survival of mice with subcutaneous ovalbumin-expressing B16-F10 (B16-F10-OVA) tumors treated with adoptive cell therapy (ACT) in combination with apilimod or ESK981.
All experimental protocols were conducted after approval by the U-M Institutional Animal Care & Use Committee. […] KPC1361 cells were resuspended in PBS, 1:1 (v/v) mixed with Matrigel (BD Biosciences; catalog #: 354248), and orthotopically injected to the pancreases at 250,000 cells in a total volume of 50 μl per injection. B16-F10 cells were resuspended in PBS and injected subcutaneously to both flanks at 400,000 cells per injection. For ACT study, B16-F10-OVA cells were resuspended in PBS and injected subcutaneously to both flanks at 300,000 cells per injection. For lung metastasis experiment, B16-BL6 cells were resuspended in PBS, 1:1 (v/v) mixed with Matrigel and injected subcutaneously to both flanks at 400,000 cells per injection. Fifteen days after tumor cell inoculation, the primary tumors were removed surgically under anesthesia. Thirty-five days after removal of the primary tumors, lung tissues were extracted and fixed, and lung metastasis was quantified. C57BL/6 mice were acquired from The Jackson Laboratory. Measurement of tumor volume began 5-9 days post tumor cell implantation and was performed 2-3 times per week using calipers. Volume measurements of pancreatic tumors were also achieved with calipers, as reported See, e.g., Koikawa, K. et al., Cell 2021; 184(18):4753-4771. In brief, mice were subjected to anesthesia with 2-3% isoflurane, and the abdominal wall then became soft and loose. The mouse was next held with the left hand allowing for the palpation and assessment of the firm pancreatic tumor mass with the right hand. […] Volume (mm^3) of tumor was calculated using (W^2×L)/2, where W stood for minor tumor axis and L for the major. All mice were maintained in a pathogen-free condition, with a 12-hour light/dark cycle.
For ICB treatment in KPC1361 pancreatic tumor-bearing mice, randomization was performed when tumors reached approximately 100 mm^3. For ACT and vaccine experiments, the mice were randomized when tumors reached approximately 35 mm^3. Anti-mouse PD-1 (clone RMP1-14) and its isotype control were purchased from BioXcell, administered intraperitoneally at 250 μg per mouse, biweekly. […]

Structure (SMILES) | cell surface expression of MHC-I (KPC1361 cells) | efficacy of the ACT [1] | survival of the animals [1]
CC(C)Cn1c2ccc(Nc3ncccn3)cc2c2c3c(c4c(c21)CCc1nn(C)cc1-4)C(=O)NC3 [ESK981, 13-isobutyl-4-methyl-10-(pyrimidin-2-ylamino)-1,2,4,7,8,13-hexahydro-6H-indazolo[5,4-a]pyrrolo[3,4-c]carbazol-6-one] | increased | strikingly enhanced | significantly extending survival
Cc1cccc(/C=N/Nc2cc(N3CCOCC3)nc(OCCc3ccccn3)n2)c1 [apilimod, N-[(E)-(3-methylphenyl)methylideneamino]-6-morpholin-4-yl-2-(2-pyridin-2-ylethoxy)pyrimidin-4-amine] | increased | strikingly enhanced | significantly extending survival

Reference: patent US20250144107A1, “USE OF A PIKFYVE INHIBITOR IN COMBINATION WITH IMMUNOTHERAPY” (The Regents of the University of Michigan, priority 2023, published 2025)
